Consider two molecules from ChEMBL document CHEMBL1142227, “Structural basis for the high all-trans-retinaldehyde reductase activity of the tumor marker AKR1B10” (Proc Natl Acad Sci U S A, 2007).

In general, IC50 refers to the concentration needed to halve the response being measured. Read a high IC50 as lower potency.

Experiment [1] has as its target Aldo-keto reductase family 1 member B1 (Homo sapiens, UniProt P15121). The experiment in a line: Inhibition of glyceraldehyde reduction activity of human AKR1B1.
Experiment [2] deals with Aldo-keto reductase family 1 member B10 (Homo sapiens, UniProt O60218). Briefly: Inhibition of retinaldehyde reductase activity of human AKR1B10.
Chain of Aldo-keto reductase family 1 member B10 (O60218 whole entry): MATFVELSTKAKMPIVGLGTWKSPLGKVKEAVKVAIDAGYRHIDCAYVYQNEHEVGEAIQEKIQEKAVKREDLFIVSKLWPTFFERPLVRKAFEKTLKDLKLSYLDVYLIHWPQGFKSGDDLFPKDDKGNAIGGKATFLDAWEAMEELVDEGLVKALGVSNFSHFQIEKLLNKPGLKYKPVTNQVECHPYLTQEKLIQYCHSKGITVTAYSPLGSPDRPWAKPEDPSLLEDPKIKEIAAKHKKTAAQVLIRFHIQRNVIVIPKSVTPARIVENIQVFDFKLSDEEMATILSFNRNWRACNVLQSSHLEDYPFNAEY
For experiment [3], the target named is Aldo-keto reductase family 1 member B1 (Rattus norvegicus, UniProt P07943). The experiment in a line: Inhibition of rat AKR1B4.

As to `O=CC(O)CO` (racemic), the midpoint of inhibition in experiment [1], the IC50, lay at 10 nM.

Take `COc1ccc2c(C(=S)N(C)CC(=O)O)cccc2c1C(F)(F)F` [TOLRESTAT]: the IC50 came out at 11.6 nM in experiment [2] and 1000 nM in experiment [3].
